What all share (test): NCI-60 cell line screen, 48 h
For experiment [1], the system named is PC-3 prostate.
The subject of experiment [2] is SNB-19 CNS.
The subject of experiment [3] is BT-549 breast.
Experiment [4] concerns NCI/ADR-RES ovarian.
Experiment [5] has as its system UO-31 renal.
Experiment [6] concerns UACC-62 melanoma.
The test system of experiment [7] is HCT-116 colon.
For experiment [8], the system named is HS 578T breast.
Experiment [9] deals with K-562 leukemia.
Experiment [10] has as its system HCC-2998 colon.
The subject of experiment [11] is SK-MEL-28 melanoma.
Experiment [12] relates to UACC-257 melanoma.
Experiment [13] deals with SN12C renal.
The test system of experiment [14] is SK-MEL-2 melanoma.
Experiment [15] concerns MOLT-4 leukemia.
Experiment [16] relates to SF-539 CNS.
For experiment [17], the system named is IGROV1 ovarian.
Experiment [18] deals with MDA-MB-231 breast.
Experiment [19] deals with MDA-N.
In experiment [20] the test system is HOP-62 NSCLC.

Each structure is given as a SMILES string.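 Method: 48-hour compound exposure of cells in 96-well plates, five concentrations, linear interpolation of endpoints. TGI is the concentration that stops growth completely.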

In the case of `O[C@@H]1C[C@H]2N3CC[C@@]2(c2cc4c(cc2C3)OCO4)[C@H]2O[C@@H]12`, the TGI in experiment [1], in experiment [2], in experiment [3], in [4], in experiment [5] and in experiment [6] was above 100 µM throughout. The TGI in experiment [7], in [8], in experiment [9], in experiment [10], in experiment [11] and in experiment [12] was above 100 µM in each case. Moreover, the TGI was above 100 µM in experiment [13]; above 100 µM in experiment [14]; above 100 µM in [15]; 0.041 µM in [16]; above 100 µM in [17]; above 100 µM in experiment [18]. In addition, the TGI in experiment [19] and in [20] was above 100 µM each time.

On to `CC(=O)N1CC(=O)N2C(=O)/C(=C/c3ccc(Cl)cc3)N=C12`, for which the TGI in experiment [1], in experiment [2], in [3], in experiment [4], in experiment [5] and in experiment [6] was above 100 µM each time. The TGI in [7], in experiment [8], in [9], in experiment [10], in [11] and in experiment [12] was above 100 µM each time. The TGI in experiment [13], in experiment [14], in experiment [15], in [16], in experiment [18] and in experiment [19] was above 100 µM throughout. In addition, in experiment [20], the TGI is above 100 µM.

For the compound `CCOP(=O)(OCC)[C@H]1OC(C)(C)O[C@@H]1CO`, the TGI in experiment [1], in [2], in experiment [3], in experiment [4], in experiment [6] and in experiment [7] was above 100 µM in each case. Besides, the TGI in [8], in [10], in experiment [11], in experiment [12], in experiment [13] and in experiment [14] was above 100 µM each time. The TGI in [15], in experiment [16], in experiment [17], in experiment [18], in [19] and in experiment [20] was above 100 µM each time.

Regarding `COC(=O)/C=C(\S/C(=N\n1cc(C(=O)OC)c(C(=O)OC)c1-c1ccc(C)cc1)c1ccc(C)cc1)C(=O)OC`, the TGI was 10.3 µM in [1]; above 61 µM in [2]; 21.3 µM in [3]; 17.2 µM in experiment [4]; 8.48 µM in experiment [5]; 25.9 µM in experiment [6]. In addition, the TGI in experiment [7] stood at 4.2 µM; in [8], 62.8 µM; in [10], 34 µM; in experiment [11] it was 12.5 µM; in experiment [12] it was 9.84 µM; in experiment [13] it was 11.8 µM. Further, the TGI was 15 µM in [14]; above 100 µM in experiment [15]; 33 µM in [16]; 44.5 µM in experiment [17]; 11.7 µM in experiment [18]; 12.7 µM in experiment [19]. The TGI in experiment [20] turned out to be 41.6 µM.

Regarding `CC(=O)O[C@H]1CCC2[C@@H]3CCC4Cc5nc6c(nc5C[C@]4(C)C3CC[C@@]21C)CC1CC[C@@H]2C(CC[C@@]3(C)C2CC[C@@H]3C(C)CCCC(C)C)[C@@]1(C)C6` (some centres not stated), the TGI in [1], in [2], in experiment [3], in experiment [4], in experiment [5] and in [6] was above 100 µM in each case. Moreover, the TGI in experiment [7], in [8], in [9], in experiment [11], in experiment [12] and in experiment [13] was above 100 µM each time. For the same compound, the TGI in experiment [14], in experiment [15], in [16], in [17], in experiment [18] and in experiment [19] was above 100 µM in each case. The compound further gave a TGI in [20] above 100 µM.

Regarding `Cc1nc2ccccc2c(=O)n1NC(=S)Nc1ccc(Cl)cc1[N+](=O)[O-]`, the TGI in experiment [1], in experiment [2], in experiment [3], in [4], in [5] and in experiment [6] was above 100 µM throughout. The TGI in experiment [7], in [8], in experiment [9], in [11], in experiment [12] and in [13] was above 100 µM each time. The TGI in experiment [14], in experiment [15], in experiment [16], in experiment [17], in experiment [18] and in experiment [19] was above 100 µM in each case. Further, the TGI in experiment [20] is above 100 µM.

As to `O=C(O)[C@@H]1NC[C@H]2C(Br)=NO[C@H]21`, the TGI in experiment [1], in experiment [2], in [3], in experiment [4], in experiment [5] and in experiment [6] was above 100 µM each time. The TGI in [7], in experiment [8], in [10], in [11], in [12] and in experiment [13] was above 100 µM each time. Further, the TGI in [14], in [15], in experiment [17], in experiment [18], in [19] and in experiment [20] was above 100 µM each time.

These data come from PubChem BioAssay (NCI).
